Results from article PMC2923778 (Journal of Molecular Biology, 2010).
Where no end group is shown, it is not given here.

What was measured:
mSPSB4ΔSB = molecular target: T1, mSPSB4ΔSB (Mus musculus, UniProt Q8R5B6); experiment: ITC of hPar-4 peptides with mSPSB4ΔSB; type: binding, murine; settings: 22 °C
T1 construct: mSPSB1 and mSPSB4 lacking the C-terminal SOCS box region (mSPSB1ΔSB and mSPSB4ΔSB); GST (cleaved yes); made in house; host or cells: E. coli Origami B(DE3) pLysS
T1 sequence (Q8R5B6 1-233): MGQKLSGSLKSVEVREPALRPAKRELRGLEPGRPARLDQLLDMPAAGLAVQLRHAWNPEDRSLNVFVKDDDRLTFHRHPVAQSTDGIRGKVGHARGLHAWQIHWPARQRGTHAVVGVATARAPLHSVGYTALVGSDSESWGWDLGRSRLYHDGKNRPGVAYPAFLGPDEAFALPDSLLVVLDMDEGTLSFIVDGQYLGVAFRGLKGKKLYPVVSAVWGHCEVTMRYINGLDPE
Procedure: (§1) Shorter mSPSB constructs were also used for mSPSB1 and mSPSB4 lacking the C-terminal SOCS box region (mSPSB1ΔSB and mSPSB4ΔSB); they were cloned into pGEX-2T (GE Healthcare, UK). […] Each of the mSPSBΔSB constructs was expressed in Origami B(DE3) pLysS cells (Novagen, Madison, WI) as a GST fusion protein at 20 °C for 24 h with 0.5 mM IPTG added at OD600 = 0.6–0.8.
(§2) ITC measurements on mSPSB proteins were performed at 22 °C using a MicroCalorimetry System (MicroCal, Northhampton, MA). mSPSB1, mSPSB2, and mSPSB4 were prepared by dialyzing against 20 mM Tris, 150 mM sodium chloride, and 2.5 mM calcium chloride at pH 8.0. Measurements on hSPSB proteins were performed at 20 °C using a VP-ITC titration calorimeter (MicroCal). hSPSB1 protein was dialyzed against 50 mM Hepes, pH 7.4, 150 mM NaCl, and 1 mM DTT. hSPSB2 and hSPSB4 proteins were dialyzed against 50 mM Hepes, pH 7.4, 150 mM NaCl, and 0.5 mM TCEP. Peptides for each experiment were dissolved in the corresponding dialysis buffers. ITC measurements were routinely carried out by titrating 100 μM peptide solution into 10 μM protein. Dilution enthalpies were determined separately by titrating peptide into buffer and used to correct the enthalpies of the binding of protein and peptide. Data were analyzed using a single binding site model implemented in the Origin software package provided with the instrument.

mSPSB1ΔSB = molecular target: T2, mSPSB1ΔSB (Mus musculus, UniProt Q9D5L7); experiment: ITC of hPar-4 peptides with mSPSB1ΔSB; type: binding, murine; settings: 22 °C
T2 construct: mSPSB1 and mSPSB4 lacking the C-terminal SOCS box region (mSPSB1ΔSB and mSPSB4ΔSB); GST (cleaved yes); made in house; host or cells: E. coli Origami B(DE3) pLysS
T2 sequence (Q9D5L7 1-231): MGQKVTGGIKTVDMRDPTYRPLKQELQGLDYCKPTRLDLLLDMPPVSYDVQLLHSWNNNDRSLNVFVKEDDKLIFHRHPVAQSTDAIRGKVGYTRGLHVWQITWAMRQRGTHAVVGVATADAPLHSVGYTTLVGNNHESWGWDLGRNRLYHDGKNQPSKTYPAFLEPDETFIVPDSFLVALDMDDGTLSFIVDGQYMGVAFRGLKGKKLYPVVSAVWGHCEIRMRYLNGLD
Text: Shorter mSPSB constructs were also used for mSPSB1 and mSPSB4 lacking the C-terminal SOCS box region (mSPSB1ΔSB and mSPSB4ΔSB); they were cloned into pGEX-2T (GE Healthcare, UK). The shorter mSPSB2 construct excluded the first 11 residues at the N-terminus and the C-terminus SOCS box [mSPSB2(12–224)]. mSPSB2(12–224) and mutants used in this study have been described previously.[21] Each of the mSPSBΔSB constructs was expressed in Origami B(DE3) pLysS cells (Novagen, Madison, WI) as a GST fusion protein at 20 °C for 24 h with 0.5 mM IPTG added at OD600 = 0.6–0.8. The mSPSBΔSB proteins were isolated according to the method used for purifying the mSPSB–elonginBC complex.
as §2

hSPSB1-elonginBC = tested on: hSPSB1-elonginBC; parameters: method as in PMID 17189197; settings: previous study; cited from earlier work
mSPSB2(12–224) = molecular target: T3, mSPSB2(12–224) (Mus musculus, UniProt O88838); experiment: ITC of hPar-4 peptides with mSPSB2(12–224); type: binding, murine; settings: 22 °C, pH 8.0, nm [sic]
T3 construct: mSPSB2(12–224) and mutants used in this study have been described previously; GST (cleaved yes); made in house; host or cells: E. coli Origami B(DE3) pLysS
T3 sequence (O88838 12-224): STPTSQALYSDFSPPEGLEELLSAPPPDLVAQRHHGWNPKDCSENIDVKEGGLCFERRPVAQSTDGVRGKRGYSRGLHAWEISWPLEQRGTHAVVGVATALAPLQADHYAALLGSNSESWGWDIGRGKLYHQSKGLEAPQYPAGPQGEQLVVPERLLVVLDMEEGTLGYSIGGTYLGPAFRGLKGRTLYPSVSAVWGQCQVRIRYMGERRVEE
Procedure: as §1, §2

mSPSB4ΔSB (murine) = experiment: ITC; 100 μM peptide titrated into 10 μM mSPSB protein; 22 °C; 20 mM Tris, 150 mM sodium chloride, 2.5 mM calcium chloride, pH 8.0; single binding site model
[1] = 20 mM Tris, 150 mM NaCl, 2.5 mM CaCl2, pH 8.0, 100 μM peptide into 10 μM protein, ± standard error of the mean

Compound | Kd (mSPSB4ΔSB; [1]) | Kd (mSPSB2(12–224)) | further results
AAANEINNNLPGGA [[L69I]hPar-4(64–77)] | 55 ± 8 nM |  | 
AAANELNNNLPGGA [hPar-4(64–77)] | 213 ± 7 nM |  | Kd (mSPSB1ΔSB; [1]): 210 ± 19 nM
AAANDLNNNLPGGA [[E68D]hPar-4(64–77)] | 47 ± 22 nM |  | 
GTPAAAADNELNNNLPGGA [[A66D]hPar-4(59–77)] | 255 ± 5 nM |  | 
[N72A]hPar-4(67–81): N72A mutant peptide of hPar-4(67–81) from a previous study (ref 10) (NELNNALPGGAPAAP; UniProt Q96IZ0 67-81, looked up, variant N72A) |  |  | binding to hSPSB1-elonginBC (in words) (hSPSB1-elonginBC): poor binding
AAANELANNLPGGA [[N70A]hPar-4(64–77)] |  | > 50000 nM | Kd (mSPSB1ΔSB; pH 8.0, nm [sic]): > 50000 nM; Kd (mSPSB4ΔSB; pH 8.0, nm [sic]): > 50000 nM
hPar-4(59–77) (peptide) |  |  | Kd (mSPSB4ΔSB (murine)): 189 nM
AAANDINNNLPGGA [[E68D,L69I]hPar-4(64–77)] | 33 ± 23 nM |  | Kd (mSPSB1ΔSB; [1]): 40 ± 5 nM
AAANELNANLPGGA [[N71A]hPar-4(64–77)] |  | > 50000 nM | Kd (mSPSB1ΔSB; pH 8.0, nm [sic]): > 50000 nM; Kd (mSPSB4ΔSB; pH 8.0, nm [sic]): > 50000 nM
CC(C)C[C@H](NC(=O)[C@H](CCC(=O)O)NC(=O)[C@H](CC(N)=O)NC(=O)[C@H](C)NC(=O)[C@H](C)NC(=O)[C@H](C)NC(=O)[C@H](C)NC(=O)[C@H](C)NC(=O)[C@@H]1CCCN1C(=O)[C@@H](NC(=O)CN)[C@@H](C)O)C(=O)N[C@@H](CC(N)=O)C(=O)N[C@@H](CC(N)=O)C(=O)N[C@@H](C)C(=O)N[C@@H](CC(C)C)C(=O)N1CCC[C@H]1C(=O)NCC(=O)NCC(=O)N[C@@H](C)C(=O)O [[N72A]hPar-4(59–77)] |  | > 50000 nM | 
